≈ marks a conversion by molar mass, not a printed value. Read-outs that look alike come from different tables or passages of the source.
Tests used:
[1] = test system: T. cruzi amastigote (Tulahuen strain expressing β-galactosidase); assay: Intracellular T. cruzi assay in 3T3 cells (beta-galactosidase, 96 h); format: cell-based, Trypanosoma cruzi; settings: read-out: T. cruzi amastigote EC50
Experimental: In a 96-well plate, 5×10^4 3T3 cells in DMEM without phenol red supplemented with 2% FBS were added to each well. Cells were incubated for 2 h to allow for attachment. Compounds were added in triplicates at 50 μM and in serial dilutions 1:2. To each well, 5×10^4 T. cruzi trypomastigotes (Tulahuen strain expressing β-galactosidase) were added and incubated at 37°C, 5% CO2 for 96 h. Following incubation, 50 μL of 500 μM chlorophenol Red-β-D-galactopyranoside (CPRG) in phosphate-buffered saline with 0.5% NP40 was added to each well and incubated at 37°C, 5% CO2 for 4 h. Absorbance was read at 590–595 nm.

LogD7.4 = format: physicochemical; settings: pH 7.4
[2] = Rat hepatocyte intrinsic clearance; format: in vitro ADME; settings: for hepatocyte CLint: hepatocytes
[3] = test system: T. b. brucei (strain 427); assay: T. b. brucei proliferation assay (PrestoBlue, 48 h); format: cell-based, Trypanosoma brucei brucei; settings: Trypanosoma brucei
Experimental: The assay was performed following a previously reported procedure. Briefly, in a 96-well plate, compounds were added in triplicates at 50 μM and in serial dilutions 1:2 in HMI-9 medium. To each well, 100 μL of 2.5×10^3 T. b. brucei (strain 427, received as a gift from Dr. C. C. Wang at UCSF) in HMI-9 medium was were added and incubated at 37°C, 5% CO2 for 48 h. Following incubation, 20 μL of PrestoBlue were added to each well and incubated for additional 4 h. Fluorescence was read at 530 nm excitation and 590 nm emission.

[4] = Human liver microsome intrinsic clearance; format: in vitro ADME; settings: liver microsomes
L. major amastigote = assay: L. major intracellular amastigote luciferase assay in RAW 264.7 macrophages; format: cell-based, Leishmania major; settings: intracellular amastigotes in RAW 264.7 macrophages, 96 h
Experimental: Amastigote assays were performed using pLEXSY-hyg2-luciferase L. major transfected promastigotes and the murine RAW 264.7 macrophage cell line (ATCC TIB-71, Manassas, VA). Briefly, luciferase-expressing promastigotes of each Leishmania species were generated by adding a luciferase encoding region to the pLEXSY-hyg2 vector (Jena Biosciences, Germany) as described. One μg of the linearized pLEXSY-hyg2-luciferase vector were electroporated (480 V, 13 Ω, and 500 μF) into 4×10^7 Leishmania promastigotes. Selection for stable promastigote transfectants was carried out using hygromycin B (100 μg/mL). RAW 264.7 macrophages were maintained in growth medium (Dulbecco’s Modified Eagle’s Medium supplemented with heat-inactivated 10% FBS (Life Technologies)). Cells were harvested and resuspended in growth medium at 2.0×10^5 cells/mL, and 1×10^4 cells/well were dispensed (final volume 50 μL) in each well of a 384 well tissue-culture treated white plate using a EVO Freedom liquid handling system (Tecan, Durham, NC). Plates were incubated at 37°C in 5% CO2 for 24 h after which the culture medium was removed from each well using the EVO Freedom liquid handler. Metacyclic phase pLEXSY-hyg2-luciferase-Leishmania promastigotes (MOI = 1:10 L. major) were added to each assay plate well and allowed to infect the RAW 264.7 macrophages. After an overnight incubation, the growth medium was aspirated and each well was washed three times with 40 μL of fresh growth medium to remove non-internalized promastigotes. After the third wash, 69.2 μL of growth medium was added to each well. Compound dilutions (final concentration ranges 0.5–10,000 ng/mL) were generated and dispensed using the liquid handling system. Compound treated plates were incubated at 37°C in 5% CO2 for 96 h. After incubation, 7.5 μL of a luciferin solution (Caliper Life Science, Waltham, MA) diluted to 150 μg/mL was added to each well, and the plates were incubated for 30 min at 37°C in the dark. Data were captured using an Infinite M200 plate reader (Tecan). EC50s were generated for each concentration response test using GraphPad Prism software 6.0.

[5] = Human plasma protein binding; format: in vitro ADME; settings: for fraction unbound: read-out: Human PPB (converted)
Aqueous solubility = format: physicochemical
[6] = intracellular in 3T3 cells, 96 h
[7] = Trypanosoma cruzi, TULAHUEN, NIH3T3, 96 h

Row | Compound | EC50 [1, 6] | LogD7.4 (LogD7.4) | Rat Hepatocyte CLint [2] | EC50 [1, 7] | logD (LogD7.4) | EC50 [3] | microsomal CLint [4] | hepatocyte CLint [2] | EC50 (L. major amastigote; Leishmania major, RAW264.7) | fraction unbound [5] | solubility (Aqueous solubility) | EC50 (L. major amastigote) | Human PPB [5]
1 | CN1CCN(c2ccnc(Nc3ccc4c(Nc5cnccn5)ccnc4c3)n2)CC1 [NEU-2091] | > 20000 nM | 2.8 | 9.3 μL/min/10^6 cells | – | – | – | – | – | – | – | – | – | –
2 | CN1CCN(S(=O)(=O)c2ccc(-c3ccc4c(Nc5ccc(OC(F)(F)F)cc5)ccnc4c3)cc2)CC1 [Compound 10] | – | – | – | 1400 nM | 4.5 | 270 nM | 280 µL/min/mg | 79 µL/min/1e6 cells | 780 nM | < 0.01 | – | – | –
3 | COc1ncc(Nc2ccnc3cc(-c4ccc(S(=O)(=O)N5CCN(C)CC5)cc4)ccc23)cn1 [Compound 2] | – | – | – | > 50000 nM | 3.1 | 2500 nM | – | – | 3100 nM | 0.12 | 7.3 µM (≈ 3.58 µg/mL) | – | –
4 | Cc1ccc(Nc2ccnc3cc(-c4ccc(S(=O)(=O)N5CCN(C)CC5)cc4)ccc23)cc1Cl [Compound 8] | – | – | – | > 50000 nM | – | 650 nM | 290 µL/min/mg | – | 2400 nM | – | – | – | –
5 | CN1CCN(c2ccc(Nc3ccc4c(Nc5cnccn5)ccnc4c3)cc2)CC1 [NEU-2096] | – | 2.2 | 10 μL/min/10^6 cells | – | – | – | – | – | – | – | – | 7900 nM | 88%
6 | CN1CCN(S(=O)(=O)c2ccc(-c3ccc4c(Nc5cnccn5)ccnc4c3)cc2)CC1 [Compound 4] | – | – | – | 16000 nM | 3.2 | 910 nM | – | – | 20000 nM | 0.06 | 4.2 µM (≈ 1.93 µg/mL) | – | –
7 | CN1CCN(c2ccnc(Nc3ccc4c(Nc5ccc(OCc6cccc(F)c6)c(Cl)c5)ccnc4c3)n2)CC1 [Compound 19] | – | – | – | 2700 nM | 4.7 | 120 nM | 21 µL/min/mg | 4.6 µL/min/1e6 cells | 2500 nM | – | 1 µM (≈ 0.57 µg/mL) | – | –
8 | CN1CCN(c2ccc(Nc3ccc4c(Nc5ccc(OCc6cccc(F)c6)c(Cl)c5)ccnc4c3)cc2)CC1 [Compound 17] | – | – | – | 2100 nM | – | 120 nM | – | – | 1200 nM | – | – | – | –
9 | CN1CCN(S(=O)(=O)c2ccc(-c3ccc4c(Nc5ccc(C(F)(F)F)nc5)ccnc4c3)cc2)CC1 [Compound 12] | – | – | – | 5400 nM | 4.4 | 700 nM | 390 µL/min/mg | 260 µL/min/1e6 cells | 6200 nM | 0.02 | – | – | –
10 | CN1CCN(c2nccc(Nc3ccc4c(Nc5cnccn5)ccnc4c3)n2)CC1 [NEU-2094] | > 50000 nM | 2.9 | – | – | – | – | – | – | – | – | – | – | –
11 | COc1ccc(Nc2ccnc3cc(-c4ccc(S(=O)(=O)N5CCN(C)CC5)cc4)ccc23)cc1 [Compound 9] | – | – | – | 1900 nM | 4.2 | 520 nM | 350 µL/min/mg | 58 µL/min/1e6 cells | 4400 nM | – | 9 µM (≈ 4.4 µg/mL) | – | –
12 | CN1CCN(S(=O)(=O)c2cccc(-c3ccc4c(Nc5ccc(OCc6cccc(F)c6)c(Cl)c5)ccnc4c3)c2)CC1 [Compound 13] | – | – | – | > 50000 nM | 4.8 | 480 nM | 110 µL/min/mg | 24 µL/min/1e6 cells | 200 nM | < 0.01 | < 1 µM | – | –
13 | C[C@@H]1[C@H](O)[C@@H](C)/C=C/C=C/C=C/C=C/C=C/C=C/C=C/[C@H](O[C@@H]2O[C@H](C)[C@@H](O)[C@H](N)[C@@H]2O)C[C@@H]2O[C@](O)(C[C@@H](O)C[C@@H](O)[C@H](O)CC[C@@H](O)C[C@@H](O)CC(=O)O[C@H]1C)C[C@H](O)[C@H]2C(=O)O [Amphotericin B, reference compound] | – | – | – | 480 nM | – | – | – | – | 36 nM | – | – | – | –
14 | CN1CCN(c2nccc(Nc3ccc4c(Nc5ccc(OCc6cccc(F)c6)c(Cl)c5)ccnc4c3)n2)CC1 [Compound 20] | – | – | – | 4300 nM | – | 98 nM | – | – | 1200 nM | – | – | – | –
15 | CN1CCN(c2ncc(Nc3ccc4c(Nc5ccc(OCc6cccc(F)c6)c(Cl)c5)ccnc4c3)cn2)CC1 [Compound 18] | – | – | – | 2700 nM | – | 160 nM | – | – | 870 nM | – | – | – | –
16 | CN1CCN(S(=O)(=O)c2ccc(-c3ccc4c(Nc5cccc(Cl)c5)ccnc4c3)cc2)CC1 [Compound 7] | – | – | – | > 50000 nM | – | > 50000 nM | 150 µL/min/mg | 15 µL/min/1e6 cells | 3400 nM | < 0.01 | – | – | –
17 | Cc1ccc(Nc2ccnc3cc(-c4ccc(S(=O)(=O)N5CCN(C)CC5)cc4)ccc23)cn1 [Compound 11] | – | – | – | 9900 nM | 3.7 | 690 nM | 400 µL/min/mg | 49 µL/min/1e6 cells | 3900 nM | 0.08 | – | – | –
18 | COc1cnc(Nc2ccnc3cc(-c4ccc(S(=O)(=O)N5CCN(C)CC5)cc4)ccc23)cn1 [Compound 3] | – | – | – | 9700 nM | 4.2 | 620 nM | – | – | 19000 nM | 0.03 | 3.2 µM (≈ 1.57 µg/mL) | – | –
19 | CN1CCN(S(=O)(=O)c2ccc(-c3ccc4c(Nc5ccc(Cl)cn5)ccnc4c3)cc2)CC1 [Compound 5] | – | – | – | 2800 nM | – | 270 nM | – | – | 2100 nM | < 0.01 | < 1 µM | – | –
